Counter-ions that a name gives are not always drawn.
Biological target: T1, human MDM2 (GST-hMDM2 1-188), interaction with biotinylated-p53 (1-83) (Homo sapiens, UniProt Q00987)
T1 construct: Amino acid residues 1-188 of human MDM2 were expressed; made in house; host or cells: Escherichia coli
Experiment: improved HTRF assay (HTRF2 assay), inhibition of HDM2-p53 interaction
Assay type: binding
Conditions: 0.2 nM GST-hMDM2, 0.5 nM biotinylated-p53, 100 mM KF
Procedure: Residues 1-83 of human p53 were expressed as an amino-terminal AviTag™-TrxA-6xHis fusion protein (biotinylated p53) in E. coli. Each protein was purified from cell paste by affinity chromatography.
Specifically, 10 uL of GST-hMDM2 was incubated with 10 ul of diluted compound (various concentrations, serially diluted) in 10% DMSO for 20 minutes at room temperature. 20 uL of biotinylated-p53 was added to the GST-hMDM2+ compound mixture, and then incubated at room temperature for 60 min. 10 uL of detection buffer consisting of SA-XLent, anti-GST cryptate antibody and KF was added to GST-hMDM2, biotinylated-p53 and compound reaction and left at room temperature to reach equilibrium for >4 hrs. The final concentration of DMSO in the reaction was 2%. Time-resolved fluorescence readings were measured on a microplate multilabel reader. Percentage of inhibition was calculated relative to nutlin-3.

T1 sequence (Q00987 1-188): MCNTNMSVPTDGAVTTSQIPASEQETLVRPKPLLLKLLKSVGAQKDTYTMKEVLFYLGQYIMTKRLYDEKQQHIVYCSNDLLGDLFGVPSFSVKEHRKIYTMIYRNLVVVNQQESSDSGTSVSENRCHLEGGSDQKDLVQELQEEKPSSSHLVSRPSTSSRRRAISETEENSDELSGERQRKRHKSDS

| Compound | IC50 [nM] |
| --- | --- |
| 2-((2R,5R,6R)-6-(3-Chlorophenyl)-5-(4-chlorophenyl)-4-((3S,5R)-5-hydroxyhexan-3-yl)-3-oxomorpholin-2-yl)acetic acid or 2-((2R,5R,6R)-6-(3-Chlorophenyl)-5-(4-chlorophenyl)-4-((3S,5S)-5-hydroxyhexan-3-yl)-3-oxomorpholin-2-yl)acetic acid [Example 127] | 34 |
| 2-((2R,5R,6R)-6-(3-Chlorophenyl)-5-(4-chlorophenyl)-4-((3S,5S)-5-hydroxyhexan-3-yl)-3-oxomorpholin-2-yl)acetic acid or 2-((2R,5R,6R)-6-(3-Chlorophenyl)-5-(4-chlorophenyl)-4-((3S,5R)-5-hydroxyhexan-3-yl)-3-oxomorpholin-2-yl)acetic acid [Example 126] | 61 |
| 2-((2R,5R,6R)-6-(3-chlorophenyl)-5-(4-chlorophenyl)-4-((S)-1-(N-(2-cyanophenyl)cyclopropanesulfonamido)butan-2-yl)-3-oxomorpholin-2-yl)acetic acid or 2-((2S,5R,6R)-6-(3-chlorophenyl)-5-(4-chlorophenyl)-4-((S)-1-(N-(2-cyanophenyl)cyclopropanesulfonamido)butan-2-yl)-3-oxomorpholin-2-yl)acetic acid [Example 206] | 145 |
| 2-((2R,5R,6R)-6-(3-chlorophenyl)-5-(4-chlorophenyl)-4-((S)-1-(N-(2-cyanophenyl)cyclopropanesulfonamido)butan-2-yl)-3-oxomorpholin-2-yl)acetic acid or 2-((2S,5R,6R)-6-(3-chlorophenyl)-5-(4-chlorophenyl)-4-((S)-1-(N-(2-cyanophenyl)cyclopropanesulfonamido)butan-2-yl)-3-oxomorpholin-2-yl)acetic acid [Example 207] | < 1 |
| 2-((2R,5R,6R)-6-(3-chlorophenyl)-5-(4-chlorophenyl)-4-((S)-1-(N-(2-fluorophenyl)cyclopropanesulfonamido)-3-methylbutan-2-yl)-3-oxomorpholin-2-yl)acetic acid or 2-((2S,5R,6R)-6-(3-chlorophenyl)-5-(4-chlorophenyl)-4-((S)-1-(N-(2-fluorophenyl)cyclopropane sulfonamido)-3-methylbutan-2-yl)-3-oxomorpholin-2-yl)acetic acid [Example 196] | 1 |
| CC(C)(C)S(=O)(=O)C[C@H](C1CC1)N1C(=O)[C@@H](CC(=O)O)O[C@H](c2cccc(Cl)c2F)[C@H]1c1ccc(Cl)cc1.CC(C)(C)S(=O)(=O)C[C@H](C1CC1)N1C(=O)[C@H](CC(=O)O)O[C@H](c2cccc(Cl)c2F)[C@H]1c1ccc(Cl)cc1 (mixture of isomers) [Example 326, 2-((2R,5R,6R)-4-((S)-2-(tert-Butylsulfonyl)-1-cyclopropylethyl)-6-(3-chloro-2-fluorophenyl)-5-(4-chlorophenyl)-3-oxomorpholin-2-yl)acetic acid and 2-((2S,5R,6R)-4-((S)-2-(tert-butylsulfonyl)-1-cyclopropylethyl)-6-(3-chloro-2-fluorophenyl)-5-(4-chlorophenyl)-3-oxomorpholin-2-yl)acetic acid] | < 1 |
| CC[C@@H](CS(=O)(=O)C(C)(C)C)N1C(=O)C(CN)O[C@H](c2cccc(Cl)c2)[C@H]1c1ccc(Cl)cc1 (mixture of isomers) [Example 378, (2R,5R,6R)-2-(Aminomethyl)-4-((S)-1-(tert-butylsulfonyl)butan-2-yl)-6-(3-chlorophenyl)-5-(4-chlorophenyl)morpholin-3-one hydrochloride and (2S,5R,6R)-2-(aminomethyl)-4-((S)-1-(tert-butylsulfonyl)butan-2-yl)-6-(3-chlorophenyl)-5-(4-chlorophenyl)morpholin-3-one hydrochloride] | 142 |
| CC[C@@H](CS(=O)(=O)C(C)(C)CC)N1C(=O)[C@@H](CC(=O)O)O[C@H](c2cccc(Cl)c2)[C@H]1c1ccc(Cl)cc1 (single isomer, unassigned) [Example 122, 2-((2R,5R,6R)-6-(3-Chlorophenyl)-5-(4-chlorophenyl)-3-oxo-4-((S)-1-(tert-pentylsulfonyl)butan-2-yl)morpholin-2-yl)acetic acid or 2-((2S,5R,6R)-6-(3-Chlorophenyl)-5-(4-chlorophenyl)-3-oxo-4-((S)-1-(tert-pentylsulfonyl)butan-2-yl)morpholin-2-yl)acetic acid] | < 1 |
| CC[C@@H](CS(=O)(=O)C(C)(C)CC)N1C(=O)[C@H](CC(=O)O)O[C@H](c2cccc(Cl)c2)[C@H]1c1ccc(Cl)cc1 (single isomer, unassigned) [Example 123, 2-((2S,5R,6R)-6-(3-Chlorophenyl)-5-(4-chlorophenyl)-3-oxo-4-((S)-1-(tert-pentylsulfonyl)butan-2-yl)morpholin-2-yl)acetic acid or 2-((2R,5R,6R)-6-(3-Chlorophenyl)-5-(4-chlorophenyl)-3-oxo-4-((S)-1-(tert-pentylsulfonyl)butan-2-yl)morpholin-2-yl)acetic acid] | 1 |
| CC[C@@H](CS(=O)(=O)C(C)C)N1C(=O)[C@@H](CC(=O)O)O[C@H](c2cc(F)cc(Cl)c2)[C@H]1c1ccc(Cl)cc1 (single isomer, unassigned) [Example 124, 2-((2R,5R,6R)-6-(3-Chloro-5-fluorophenyl)-5-(4-chlorophenyl)-4-((S)-1-(isopropylsulfonyl)butan-2-yl)-3-oxomorpholin-2-yl)acetic acid or 2-((2S,5R,6R)-6-(3-Chloro-5-fluorophenyl)-5-(4-chlorophenyl)-4-((S)-1-(isopropylsulfonyl)butan-2-yl)-3-oxomorpholin-2-yl)acetic acid] | 2 |
| CC[C@@H](CS(=O)(=O)C(C)C)N1C(=O)[C@H](CC(=O)O)O[C@H](c2cc(F)cc(Cl)c2)[C@H]1c1ccc(Cl)cc1 (single isomer, unassigned) [Example 125, 2-((2S,5R,6R)-6-(3-Chloro-5-fluorophenyl)-5-(4-chlorophenyl)-4-((S)-1-(isopropylsulfonyl)butan-2-yl)-3-oxomorpholin-2-yl)acetic acid or 2-((2R,5R,6R)-6-(3-Chloro-5-fluorophenyl)-5-(4-chlorophenyl)-4-((S)-1-(isopropylsulfonyl)butan-2-yl)-3-oxomorpholin-2-yl)acetic acid] | 11 |
| CC[C@@H](CS(=O)(=O)c1ccccc1Cl)N1C(=O)[C@@H](CC(=O)O)O[C@H](c2cccc(Cl)c2)[C@H]1c1ccc(Cl)cc1 (single isomer, unassigned) [Example 137, 2-((2R,5R,6R)-6-(3-chlorophenyl)-5-(4-chlorophenyl)-4-((S)-1-((2-chlorophenyl)sulfonyl)butan-2-O-3-oxomorpholin-2-yl)acetic acid or 2-((2S,5R,6R)-6-(3-chlorophenyl)-5-(4-chlorophenyl)-4-((S)-1-((2-chlorophenyl)sulfonyl)butan-2-yl)-3-oxomorpholin-2-yl)acetic acid] | 5 |
| CC[C@@H](CS(=O)(=O)c1ccccc1Cl)N1C(=O)[C@@H](CC(=O)O)O[C@H](c2cccc(Cl)c2)[C@H]1c1ccc(Cl)cc1 (single isomer, unassigned) [Example 138, 2-((2R,5R,6R)-6-(3-chlorophenyl)-5-(4-chlorophenyl)-4-((S)-1-((2-chlorophenyl)sulfonyl)butan-2-yl)-3-oxomorpholin-2-yl)acetic acid or 2-((2S,5R,6R)-6-(3-chlorophenyl)-5-(4-chlorophenyl)-4-((S)-1-((2-chlorophenyl)sulfonyl)butan-2-yl)-3-oxomorpholin-2-yl)acetic acid] | 29 |

Reference: patent US9376425B2, “Heterocyclic compounds as MDM2 inhibitors for the treatment of cancer” (AMGEN INC., priority 2011, dated 2016)
